Experimental data taken from patent US20240099951A1, “HAIR GROWTH STIMULANT” (ADJUVANT HOLDINGS CO., LTD., priority 2020, published 2024).

What was measured:
VEGF gene = test: Human dermal papilla cell VEGF gene expression (real-time PCR); type: cell-based; conditions: 72 hours; for amount of expression of the VEGF gene as compared with the control group: human dermal papilla cells
Procedure: Human dermal papilla cells (Catalog No. CA602t05a; derived from person; Toyobo Co., Ltd. (Japan)) were purchased, testing and evaluation being carried out with maintenance and culture of cells being performed as described in the protocol.
As drugs for testing, drug solutions of the following respective concentrations (final concentrations) were prepared and used. • Comparative Example 5: 30 μM minoxidil • Comparative Example 6: 100 μM adenosine • Working Example 3: 0.3125 μM phytosphingosine • Working Example 4: 1.25 μM phytosphingosine
A 24-well plate was seeded with human dermal papilla cells so as to obtain 6×10^3 thereof per well. Following culture for 1 day within a CO2 incubator (5% CO2; 37° C.), the culture medium was replaced with culture medium which contained the respective drugs for testing. The cell plate was thereafter returned to the CO2 incubator, and this was further cultured for 72 hours. Following culture, total RNA was extracted from the respective wells and was recovered, and this was reverse-transcribed into cDNA. The cDNA that was prepared was used to measure VEGF gene expression in accordance with the real-time PCR method. The GAPDH gene was used as an internal standard, the amount of VEGF gene expression being calculated relative to the negative control group. […]
300 μL of lysis buffer RL was added thereto per well, and the cells were lysed by pipetting. […] Concentration of the recovered RNA was measured using a NanoDrop Lite (Catalog No. ND-LITE; Thermo Fisher Scientific K.K.), and this was stored at −80° C. until the following cDNA creation procedure.
A FastGene scriptase II cDNA synthesis 5X Ready Mix (Catalog No. NE-LS64; Nippon Genetics Co., Ltd. (Japan)) was used to synthesize cDNA. Dilution with RNase Free Water was carried out so as to cause concentration of total RNA produced in a new tube to be 20 ng/mL, 4 μL of FastGene scriptase II cDNA synthesis 5X Ready Mix was added to 16 μL of this sample solution, and this was agitated by vortexing. […]

BALB/c-nu/nu mice = test: Evaluation of mitogenic activity (BrdU immunostaining of skin tissue); type: in vivo; conditions: once per day for 7 days
Procedure: Dorsal body hair skin was collected from BALB/c-nu/nu mice (Japan SLC, Inc.; Japan) of age 7 to 8 weeks. Testing and breeding of animals complied with pertinent laws, regulations, ordinances, and guidelines, and was performed with the approval of the Experimental Ethics Review Board of the Institute of Physical and Chemical Research. The following drugs were respectively prepared. • Working Example: 3% phytosphingosine solution • Comparative Example: 60% aqueous ethanol solution A micropipette was used to apply 25 μL of the drug to the left and right dorsal regions of the BALB/c-nu/nu mice. A dryer was thereafter used to cause cool air to be directed at the location where this was applied and rapidly dry the drug. This procedure was carried out in repetitive fashion four times at each the left and right dorsal regions. This drug application procedure was carried out for seven days starting from the day following depilation. 24 hours and 48 hours prior to collection of dorsal body hair skin from BALB/c-nu/nu mice on which the drug had been applied for 7 days, a syringe (Terumo Corporation; Japan) was used to administer 0.5 mL of 10 mg/mL BrdU/physiological saline solution to the abdomen in the region of the hind legs of each mouse. Following euthanization by cervical dislocation of the BALB/c-nu/nu mice on the eighth day at the same time as when administration had been carried out, skin tissue was collected in a manner such as would not cause damage to the hair bulb. The collected skin tissue was immersed for 16 to 24 hours in SuperFix (Toyobo Co., Ltd.; Japan) fixative solution, following which this was washed four times in 1×PBS, placed in fresh 1X PBS, and stored. The necessary portion of the collected skin tissue was cut out therefrom, and a paraffin fluid exchange apparatus (Leica Microsystems GmbH; Germany) was used to fabricate a paraffin block therefrom. […] BrdU counts were measured at three locations of 100 μm^2 for the epidermal layer and the dermal layer, measurement being carried out at three sites of size on the same order for the hair follicle. […]

CCCCCCCCCCCCCC[C@@H](O)[C@@H](O)[C@@H](N)CO [phytosphingosine]
amount of expression of the VEGF gene as compared with the control group (VEGF gene; 0.3125 μM phytosphingosine (Working Example 3)): increase
amount of expression of the VEGF gene as compared with the control group (VEGF gene; 1.25 μM phytosphingosine (Working Example 4)): increase
amount of expression of the VEGF gene compared with 30 μM minoxidil (Comparative Example 5) or 100 μM adenosine (Comparative Example 6) (VEGF gene; increased amount of phytosphingosine added): greater
mitogenic activity (BrdU counts) as compared with the negative control and the positive control (BALB/c-nu/nu mice; 3% phytosphingosine solution): trend toward increased mitogenic activity
mitogenic activity at the basal layer of the epidermis (BALB/c-nu/nu mice; 3% phytosphingosine solution): increase in mitogenic activity
mitogenic activity at the hair follicle (BALB/c-nu/nu mice; 3% phytosphingosine): improved
